Assay results published in US11446312B2, “Compounds that modulate von Willebrand factor levels and their use in the treatment of blood disorders” (SOCIETE DES PRODUITS NESTLE S.A., priority 2018, dated 2022).

Tested on: vWF
Test: Cultured Human Endothelial Cell vWF Expression Assay
Format: cell-based
Conditions: human iPSC-derived endothelial cells, 24h treatment, immunofluorescence intensity, vs DMSO control
Procedure: Human induced-pluripotent stem cell derived endothelial cells and accompanying growth media were purchased from Cellular Dynamics International. ECs were cultured according to the manufacturer's protocol (Cellular Dynamics International). ECs were plated at a density of 10′000-15′000 cells/cm^2 in culture vessels which have been coated with fibronectin (Invitrogen) and maintained in a low oxygen incubator (37° C., 5% CO2, 5% O2). The EC maintenance media was exchanged every other day and comprised of VascuLife Basal medium +VascuLife VEGF medium complete kit (Lifeline Cell Technologies). For all experiments ECs of passage 0 or 1 were used. The Celastrol used was a synthetic organic chemical manufactured in the United States and purchased from Novus (catalog reference number NBP2-29362). vWF primary antibody was obtained from Abcam (ab6994), tubulin primary antibody was obtained from Abcam (ab7291), and the secondary antibodies were Alexa fluor (anti-mouse and anti-rabbit) obtained from Thermo Fisher Scientific.
Endothelial cells were plated into 96-well glass-bottom plates at a density of 10,000 cells per well. […] Quantification of the fluorescence intensity (which is indicative of protein levels) was performed using the MetaXpress software. […]
The figure (FIG. 1) depicts the quantification of the data for human endothelial cells treated with celastrol as described above. […]

CC1=C(O)C(=O)C=C2C1=CC=C1[C@@]2(C)CC[C@@]2(C)[C@@H]3C[C@](C)(C(=O)O)CC[C@]3(C)CC[C@]12C [Celastrol, 10-Hydroxy-2,4a,6a,9,12b,14a-hexamethyl-11-oxo-1,2,3,4,4a,5,6,6a,11,12b,13,14,14a,14b-tetradecahydro-picene-2-carboxylic acid]
vWF protein expression (normalized by the expression of tubulin) (1 μM celastrol): significantly (***p<0.001) reduces vWF protein expression
vWF protein expression (normalized by the expression of tubulin) (10 μM celastrol): significantly (***p<0.001) reduces vWF protein expression
